pIC50: −log10 of the molar value. Where “and” joins values, the source holds several entries; their conditions need not be identical. Equal values may be shown once. Where a name gives a salt, the structure may show the parent alone. Read-outs that look alike come from different tables or passages of the source.
Legend:
K. pneumoniae MP14 = assay: BLI potentiation MIC, K. pneumoniae MP14; format: cell-based; conditions: BLI fixed 4 ug/ml; incubation 19 h
Protocol: (§1) MIC90 (μg/mL) is the lowest concentration of an antibiotic that will inhibit the visible growth of 90% of microorganisms after incubation as compared with a control group to which the antibiotic is not treated.
(§2) MIC values were measured by the broth microdilution method developed by the Clinical and Laboratory Standards Institute (CLSI) (see CLSI M07-A9, Methods for Dilution Antimicrobial Susceptibility Test for Bacteria that Grow Aerobically; Approved Standard-Ninth Edition (2012): CLSI, Villanova, Pa.). The in vitro antibacterial activity was measured with respect to the following 9 clinical isolates: P. aeruginosa (3 strains); K. pneumoniae (6 strains). The in vitro antibacterial activity of selected compounds was measured with respect to the following 15 clinical isolates: K. pneumoniae (15 strains).

K. pneumoniae 7586 = assay: BLI potentiation MIC, K. pneumoniae 7586; format: cell-based; conditions: BLI fixed 4 ug/ml; incubation 19 h
Protocol: as §1, §2

K. pneumoniae 5971(KOX) = assay: BLI potentiation MIC, K. pneumoniae 5971(KOX); format: cell-based; conditions: BLI fixed 4 ug/ml; incubation 19 h
Protocol: as §1, §2

[1] = molecular target: T1, OXA-48 β-lactamase (class D) (Klebsiella pneumoniae, UniProt Q6XEC0); assay: Inhibitory activity against β-lactamases (nitrocefin), OXA-48; format: biochemical; conditions: 100 μM nitrocefin, 30° C., pH 6.8
T1 construct: MICs of bacterial strains used for extraction of enzymes; endogenous in cells; host or cells: bacterial strain carrying OXA-48 (E. coli according to the earlier reading)
Protocol: (§3) More diluted stocks were prepared as necessary. Enzyme activity was determined by monitoring the change of absorbance at 492 nm using the characteristic molecular extinction coefficient (Δε492=17,400 M^−1 cm^−1) of nitrocefin by a Shimazu UV-1650PC spectrophotometer. The nitrocefin was purchased from OXOID. Kinetic measurements were run at 30° C. in 10 mM MES[2-(N-morpholino)ethanesulfonic acid]buffer (pH 6.8) or 10 mM MES[2-(N-morpholino)ethanesulfonic acid] buffer (pH 6.8), […] BSA and 50 mM sodium bicarbonate. Reactions were performed in 2.5 mL cuvettes with 100 μM nitrocefin and initiated by adding 1.5 nM to 2.5 nM enzyme. The first 180 s of each reaction was used to measure initial rates. Data were evaluated using Microsoft Excel. Concentration dependent inhibition of enzyme was measured using different concentrations of inhibitors resulting from two-fold dilution series. Reaction progress at every concentration of inhibitor was measured in triplicates. IC50 values were calculated using 4-parameter log fits using XL Fit curve fitting software (www.idbs.com) for Excel using the following equation:
(§4) [formula] where y is the remaining enzyme activity (in %) and x is the corresponding concentration. he fitted IC50 parameter is the relative IC50, and is defined as the concentration giving a response half way between the fitted top (B) and bottom (A) of the curve.

P. aeruginosa ATCC27853 = assay: BLI potentiation MIC (broth microdilution), P. aeruginosa ATCC27853 (PoxB, AmpC); format: cell-based; conditions: BLI fixed 4 ug/ml; incubation 19 h
Protocol: as §1, §2

K. pneumoniae 5117 = assay: BLI potentiation MIC, K. pneumoniae 5117 (SHV-11, TEM-1); format: cell-based; conditions: BLI fixed 4 ug/ml; incubation 19 h
Protocol: as §1, §2

K. pneumoniae 4006 = assay: BLI potentiation MIC, K. pneumoniae 4006 (SHV-12, CTX-M-15, TEM-1, OXA-9); format: cell-based; conditions: BLI fixed 4 ug/ml; incubation 19 h
Protocol: as §1, §2

K. pneumoniae CL5761 = assay: MIC of strain used for extraction of enzymes, K. pneumoniae CL5761 (KPC-3, TEM-216, SHV-5); format: cell-based; conditions: BLI: 4 ug/mL
Protocol: as §1, §2

E. coli K0519020 = assay: MIC of strain used for extraction of enzymes, E. coli K0519020 (CTX-M-15, TEM-1, OXA-1, AmpC (NC_000913)); format: cell-based; conditions: BLI: 4 ug/mL
[2] = molecular target: T2, CMY-10 β-lactamase (class C) (Klebsiella aerogenes, UniProt Q99QC1); assay: Inhibitory activity against β-lactamases (nitrocefin), CMY-10; format: biochemical
T2 construct: MICs of bacterial strains used for extraction of enzymes; endogenous in cells
Protocol: as §3, §4

P. aeruginosa ARC3506 = assay: BLI potentiation MIC, P. aeruginosa ARC3506 (VEB-1, OXA-10, OprD−, AmpC); format: cell-based; conditions: BLI fixed 4 ug/ml; incubation 19 h
Protocol: as §1, §2

K. pneumoniae 100 = assay: BLI potentiation MIC, K. pneumoniae 100; format: cell-based; conditions: BLI fixed 4 ug/ml; incubation 19 h
Protocol: as §1, §2

K. pneumoniae 23 = assay: BLI potentiation MIC, K. pneumoniae 23; format: cell-based; conditions: BLI fixed 4 ug/ml; incubation 19 h
Protocol: as §1, §2

E. aerogenes K9911729 = assay: MIC of strain used for extraction of enzymes, E. aerogenes K9911729 (CMY-10, TEM-1, SHV-12, AmpC (DQ478697)); format: cell-based; conditions: BLI: 4 ug/mL
K. pneumoniae 101 = assay: BLI potentiation MIC, K. pneumoniae 101; format: cell-based; conditions: BLI fixed 4 ug/ml; incubation 19 h
Protocol: as §1, §2

P. aeruginosa ARC3514 = assay: BLI potentiation MIC, P. aeruginosa ARC3514 (KPC-2, OprD−, AmpC); format: cell-based; conditions: BLI fixed 4 ug/ml; incubation 19 h
Protocol: as §1, §2

K. pneumoniae 3784 = assay: BLI potentiation MIC, K. pneumoniae 3784 (SHV-11, SHV-12, DHA-1); format: cell-based; conditions: BLI fixed 4 ug/ml; incubation 19 h
Protocol: as §1, §2

K. pneumoniae 5576 = assay: BLI potentiation MIC, K. pneumoniae 5576 (SHV-11, CMY-2, DHA-1, TEM-1); format: cell-based; conditions: BLI fixed 4 ug/ml; incubation 19 h
Protocol: as §1, §2

K. pneumoniae 4248 = assay: BLI potentiation MIC, K. pneumoniae 4248 (SHV-11, CTX-M-15, TEM-1, OXA-1); format: cell-based; conditions: BLI fixed 4 ug/ml; incubation 19 h
Protocol: as §1, §2

[3] = molecular target: KPC-3 β-lactamase (class A) (Klebsiella pneumoniae, UniProt Q9F663, H272Y); assay: Inhibitory activity against β-lactamases (nitrocefin), KPC-3; format: biochemical, K. pneumoniae
Protocol: as §3, §4

K. pneumoniae NDM-506 = assay: BLI potentiation MIC, K. pneumoniae NDM-506; format: cell-based; conditions: BLI fixed 4 ug/ml; incubation 19 h
Protocol: as §1, §2

K. pneumoniae 5216 = assay: BLI potentiation MIC, K. pneumoniae 5216 (TEM-1A); format: cell-based; conditions: BLI fixed 4 ug/ml; incubation 19 h
Protocol: as §1, §2

K. pneumoniae 6839 = assay: BLI potentiation MIC, K. pneumoniae 6839 (SHV-11, SHV-12, DHA-1); format: cell-based; conditions: BLI fixed 4 ug/ml; incubation 19 h
Protocol: as §1, §2

K. pneumoniae 89 = assay: BLI potentiation MIC, K. pneumoniae 89; format: cell-based; conditions: BLI fixed 4 ug/ml; incubation 19 h
Protocol: as §1, §2

K. pneumoniae ATCC700603 = assay: BLI potentiation MIC, K. pneumoniae ATCC700603 (SHV-3); format: cell-based; conditions: BLI fixed 4 ug/ml; incubation 19 h
Protocol: as §1, §2

K. pneumoniae 6540 = assay: BLI potentiation MIC, K. pneumoniae 6540; format: cell-based; conditions: BLI fixed 4 ug/ml; incubation 19 h
Protocol: as §1, §2

[4] = tested on: K. pneumoniae clinical strains expressing β-lactamases; assay: BLI potentiation MIC, panel of K. pneumoniae clinical strains expressing β-lactamases (isoxazoline vs. isoxazole); format: cell-based; conditions: in combination with Meropenem and LCB10-0200; Table 12
Protocol: as §1, §2

[5] = molecular target: T3, NDM-1 β-lactamase (class B) (Klebsiella pneumoniae, UniProt C7C422); assay: Inhibitory activity against β-lactamases (nitrocefin), NDM-1; format: biochemical; conditions: 100 μM nitrocefin, 30° C., pH 6.8
T3 construct: MICs of bacterial strains used for extraction of enzymes; endogenous in cells; host or cells: bacterial strain carrying NDM-1 (E. coli according to the earlier reading)
Protocol: as §3, §4

Chain of KPC-3 β-lactamase (class A) (Q9F663 25-293 H272Y): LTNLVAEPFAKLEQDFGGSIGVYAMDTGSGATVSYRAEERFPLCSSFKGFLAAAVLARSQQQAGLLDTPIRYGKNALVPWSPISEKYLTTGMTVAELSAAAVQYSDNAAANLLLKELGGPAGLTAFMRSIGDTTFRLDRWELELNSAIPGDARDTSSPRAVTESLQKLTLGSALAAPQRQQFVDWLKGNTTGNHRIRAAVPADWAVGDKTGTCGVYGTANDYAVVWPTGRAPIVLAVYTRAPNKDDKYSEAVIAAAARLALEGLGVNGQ
T1 sequence (Q6XEC0 23-265, looked up): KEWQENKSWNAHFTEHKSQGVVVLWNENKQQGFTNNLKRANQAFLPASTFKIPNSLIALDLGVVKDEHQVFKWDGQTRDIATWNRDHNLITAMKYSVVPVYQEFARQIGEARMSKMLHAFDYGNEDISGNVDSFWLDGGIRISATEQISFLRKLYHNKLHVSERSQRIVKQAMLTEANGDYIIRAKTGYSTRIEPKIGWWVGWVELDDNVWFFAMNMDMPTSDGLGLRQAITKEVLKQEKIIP
T2 sequence (Q99QC1 24-382): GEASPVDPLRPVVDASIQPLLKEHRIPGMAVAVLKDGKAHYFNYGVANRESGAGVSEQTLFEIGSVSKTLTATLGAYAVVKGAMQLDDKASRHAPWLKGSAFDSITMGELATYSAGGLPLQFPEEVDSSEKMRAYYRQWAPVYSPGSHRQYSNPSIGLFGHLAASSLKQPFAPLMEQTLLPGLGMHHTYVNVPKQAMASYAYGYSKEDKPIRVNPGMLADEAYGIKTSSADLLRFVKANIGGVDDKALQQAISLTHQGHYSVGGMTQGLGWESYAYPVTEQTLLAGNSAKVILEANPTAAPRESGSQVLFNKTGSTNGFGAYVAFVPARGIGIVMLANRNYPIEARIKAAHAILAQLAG
T3 sequence (C7C422 29-270, looked up): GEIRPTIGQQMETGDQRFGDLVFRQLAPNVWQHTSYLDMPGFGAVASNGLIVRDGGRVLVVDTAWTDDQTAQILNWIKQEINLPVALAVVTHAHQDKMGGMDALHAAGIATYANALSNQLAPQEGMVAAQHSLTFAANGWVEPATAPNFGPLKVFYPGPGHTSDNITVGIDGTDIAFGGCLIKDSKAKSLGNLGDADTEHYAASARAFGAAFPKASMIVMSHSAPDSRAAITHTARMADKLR

NCCONC(=O)[C@@H]1CC[C@@H]2CN1C(=O)N2OS(=O)(=O)O [OP-595]
MIC of LCB10-0200 with BLI (K. pneumoniae MP14): 0.03125 μg/mL and <0.0312 μg/mL
MIC of LCB10-0200 with BLI (K. pneumoniae 7586): 0.03125 μg/mL and 0.0625 μg/mL
MIC of LCB10-0200 with BLI (K. pneumoniae 5971(KOX)): 8 μg/mL and 16 μg/mL
pIC50 [1]: 4.35
MIC of Ceftazidime with BLI (P. aeruginosa ATCC27853): 2 mg/L
MIC of LCB10-0200 with BLI (P. aeruginosa ATCC27853): 0.25 μg/mL and 0.5 μg/mL
MIC of Meropenem with BLI (P. aeruginosa ATCC27853): 2 mg/L
MIC of LCB10-0200 with BLI (K. pneumoniae 5117): 0.0625 μg/mL
MIC of Meropenem with BLI (K. pneumoniae 5117): 0.5 mg/L and 0.25 mg/L
MIC of Ceftazidime with BLI (K. pneumoniae 4006): 0.125 mg/L
MIC of LCB10-0200 with BLI (K. pneumoniae 4006): 0.03125 μg/mL and 0.0625 μg/mL
MIC of Meropenem with BLI (K. pneumoniae 4006): 0.0625 mg/L
MIC of LCB10-0200 with BLI (K. pneumoniae CL5761): 0.25 μg/mL
MIC of Meropenem with BLI (K. pneumoniae CL5761): 1 mg/L
MIC of LCB10-0200 with BLI (E. coli K0519020): 0.0625 μg/mL
MIC of Meropenem with BLI (E. coli K0519020): 0.125 mg/L
pIC50 ([2]; 100 μM nitrocefin, 30° C., pH 6.8, read-out: IC50 values, CMY-10): 4.37
MIC of Ceftazidime with BLI (P. aeruginosa ARC3506): 32 mg/L
MIC of LCB10-0200 with BLI (P. aeruginosa ARC3506): 0.25 μg/mL
MIC of Meropenem with BLI (P. aeruginosa ARC3506): 64 mg/L
MIC of LCB10-0200 with BLI (K. pneumoniae 100): 0.0625 μg/mL
MIC of LCB10-0200 with BLI (K. pneumoniae 23): 1 μg/mL
MIC of LCB10-0200 with BLI (E. aerogenes K9911729): <0.0312 μg/mL
MIC of Meropenem with BLI (E. aerogenes K9911729): <0.0312 mg/L
MIC of LCB10-0200 with BLI (K. pneumoniae 101): 0.25 μg/mL
MIC of Meropenem with BLI (K. pneumoniae 101): 0.125 mg/L and 0.0625 mg/L
MIC of Ceftazidime with BLI (P. aeruginosa ARC3514): 8 mg/L
MIC of LCB10-0200 with BLI (P. aeruginosa ARC3514): 0.125 μg/mL and 0.25 μg/mL
MIC of Meropenem with BLI (P. aeruginosa ARC3514): >64 mg/L
MIC of Ceftazidime with BLI (K. pneumoniae 3784): 0.5 mg/L
MIC of LCB10-0200 with BLI (K. pneumoniae 3784): 0.0625 μg/mL
MIC of Meropenem with BLI (K. pneumoniae 3784): 0.25 mg/L
MIC of Ceftazidime with BLI (K. pneumoniae 5576): 0.125 mg/L
MIC of LCB10-0200 with BLI (K. pneumoniae 5576): 0.0625 μg/mL
MIC of Meropenem with BLI (K. pneumoniae 5576): 0.03125 mg/L and 0.0625 mg/L
MIC of Ceftazidime with BLI (K. pneumoniae 4248): 0.0625 mg/L
MIC of LCB10-0200 with BLI (K. pneumoniae 4248): <0.03125 μg/mL
MIC of Meropenem with BLI (K. pneumoniae 4248): 0.0625 mg/L
pIC50 ([3]; 100 μM nitrocefin, 30° C., pH 6.8, read-out: IC50 values, KPC-3): 7.20
MIC of Ceftazidime with BLI (K. pneumoniae NDM-506): 0.125 mg/L
MIC of Meropenem with BLI (K. pneumoniae NDM-506): >64 mg/L
MIC of LCB10-0200 with BLI (K. pneumoniae 5216): 0.25 μg/mL and 0.5 μg/mL
MIC of Meropenem with BLI (K. pneumoniae 5216): 2 mg/L
MIC of LCB10-0200 with BLI (K. pneumoniae 6839): 0.0625 μg/mL
MIC of LCB10-0200 with BLI (K. pneumoniae 89): 0.0625 μg/mL
MIC of Ceftazidime with BLI (K. pneumoniae ATCC700603): 0.125 mg/L
MIC of LCB10-0200 with BLI (K. pneumoniae ATCC700603): 0.125 μg/mL
MIC of Meropenem with BLI (K. pneumoniae ATCC700603): 0.125 mg/L and 0.0625 mg/L
MIC of LCB10-0200 with BLI (K. pneumoniae 6540): 0.0625 μg/mL
MIC of Meropenem with BLI (K. pneumoniae 6540): 0.125 mg/L and 0.0625 mg/L

NC[C@H]1CC([C@@H]2CC[C@@H]3CN2C(=O)N3OS(=O)(=O)O)=NO1 [Example 15, [(2S)-2-[(5R)-5-(aminomethyl)-4,5-dihydroisoxazol-3-yl]-7-oxo-1,6-diazabicyclo[3.2.1]octan-6-yl] hydrogen sulfate]
pIC50 [1]: 5.19
coverage on various β-lactamases compared with Cubist-1 [4]: much broader coverage on various β-lactamases than Cubist-1
pIC50 [2]: 6.91
pIC50 [5]: 2.78
pIC50 [3]: 5.52

Source: patent US10273235B2, “Compositions and methods for inhibiting β-lactamase” (LegoChem Biosciences, Inc., priority 2015, dated 2019)
